Active and inactive are the calls of the source.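 Rule for the calls: active = compounds lowering cell ATP signal with a fitted AC50 at or below twice their top tested dose; inconclusive = flat curve between 30% and 70% loss, or poor fit; inactive = the rest.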

Tested on in the first assay: not listed separately
Briefly: toxicity toward A549 lung cells – cell-based, plate reader, dry powder, set 11, cytotoxicity control, dose response (AID 743413). Conditions: A549 viability, CellTiter-Glo ATP luminescence, 72 h; at 12 µM (top of the series).
As to `COc1cc(CNCCCN2CCOCC2)ccc1OCC(=O)Nc1cccc(C(F)(F)F)c1`, the activity change, negative = cytotoxicity was 7.4% (inactive).

On to `COCCN(Cc1ccco1)C(=O)CSc1c2c(nc3cc(Cl)ccc13)CCCC2`, for which the activity change, negative = cytotoxicity is -3.68% (inactive).

Staying with this assay, now noted: A549 viability, CellTiter-Glo ATP luminescence, 72 h; at 26 µM (top of the series).
For `O=C(COc1ccc(C(=O)NCC2CCCO2)cc1)Nc1cccc(C(F)(F)F)c1` (stereo unspecified), the activity change, negative = cytotoxicity was 1.08% (inactive).

As to `O=C(CSc1c2c(nc3ccc(Cl)cc13)CCCC2)N1CCNC1=O`, the activity change, negative = cytotoxicity is -13.8% (inactive).

For the compound `CN(CCNC(=O)CSc1c2c(nc3ccc(Cl)cc13)CCCC2)Cc1ccccc1`, the activity change, negative = cytotoxicity is -8.03% (inactive).

As for `O=C(COc1ccccc1C(=O)NCCOc1ccc(Cl)cc1)Nc1cccc(Cl)c1`, the activity change, negative = cytotoxicity was -15.3% (inactive).

For the compound `O=C(COc1ccc(C(=O)N2CCC2)cc1)Nc1cccc(C(F)(F)F)c1`, the activity change, negative = cytotoxicity was 2.9% (inactive).

Regarding `O=C(CSc1ccc2ccccc2n1)NCc1ccco1`, the activity change, negative = cytotoxicity was -6.75% (inactive).

With `CCCCOc1ccc(NC(=O)COc2ccccc2C(=O)NCCOc2ccccc2)cc1`, the activity change, negative = cytotoxicity is -9.94% (inactive).

`CC1(C)CC(NC(=O)c2ccc(OCC(=O)Nc3cccc(C(F)(F)F)c3)cc2)CC(C)(C)N1`: the activity change, negative = cytotoxicity is -14.3% (inactive).

Take `CCOc1ccc(NC(=O)COc2ccc(C(=O)N3CCC(C(N)=O)CC3)cc2OC)cc1`: the activity change, negative = cytotoxicity is -3.38% (inactive).

On to `COC(=O)CCCN(C)C(=O)c1ccc(OCC(=O)Nc2cccc(OC)c2)cc1`, for which the activity change, negative = cytotoxicity was -0.651% (inactive).

As to `Cc1ccc2nc(Cl)cc(SCC(=O)NCc3ccco3)c2c1`, the activity change, negative = cytotoxicity is -7.2% (inactive).

With `O=C(COc1ccc(C(=O)N2CCN(C(=O)C3CC3)CC2)cc1)Nc1cccc(C(F)(F)F)c1`, the activity change, negative = cytotoxicity is -1.09% (inactive).

As to `O=C(O)CSc1c2c(nc3cc(C(=O)NCc4cccs4)ccc13)CCCC2`, the activity change, negative = cytotoxicity is -2.24% (inactive).

Consider `CN(C(=O)COc1ccccc1C(=O)Nc1ccccc1)c1ccccc1`, for which the activity change, negative = cytotoxicity was -12% (inactive).

`CN(C(=O)COc1ccccc1C(N)=O)c1ccccc1`: the activity change, negative = cytotoxicity is -1.13% (inactive).

Turning to `O=C(CSc1cccc2cccnc12)NCc1ccco1`, the activity change, negative = cytotoxicity is -1.12% (inactive).

With `CN(C(=O)COc1ccc(Cl)cc1C(N)=O)c1ccccc1`, the activity change, negative = cytotoxicity is 2.07% (inactive).

Turning to `CCOC(=O)N1CCC(NC(=O)CSc2c3c(nc4ccc(Cl)cc24)CCCC3)CC1`, the activity change, negative = cytotoxicity is -13.1% (inactive).

Consider `O=C(COc1ccc(C(=O)NC2CCCCC2)cc1)Nc1cccc(C(F)(F)F)c1`, for which the activity change, negative = cytotoxicity was -0.017% (inactive).

`COc1cc(C(=O)NCCCN(C)C)ccc1OCC(=O)Nc1cccc(C(F)(F)F)c1`: the activity change, negative = cytotoxicity was -6.69% (inactive).

For the compound `O=C(CSc1c2c(nc3ccc(Cl)cc13)CCCC2)NCC1(c2ccccc2)CCCC1`, the activity change, negative = cytotoxicity is -1.8% (inactive).

Turning to `O=C(CSc1c2c(nc3ccc(Cl)cc13)CCCC2)NC1CCCC1`, the activity change, negative = cytotoxicity was -25.2% (inactive).

With `Cc1ccc(NC(=O)COc2ccccc2C(=O)NCCN(C)C)cc1`, the activity change, negative = cytotoxicity is -4.77% (inactive).

On to `CCOC(=O)C1CCN(C(=O)c2ccc(OCC(=O)Nc3ccc(OCC)cc3)c(OC)c2)CC1`, for which the activity change, negative = cytotoxicity is 5.86% (inactive).

Take `COc1ccc(N(Cc2cccs2)C(=O)COc2ccccc2C(=O)Nc2ccccc2)cc1`: the activity change, negative = cytotoxicity was -14% (inactive).

With `CCN(CC)C(=O)CSc1c2c(nc3ccc(Cl)cc13)CCCC2`, the activity change, negative = cytotoxicity is -10.9% (inactive).

For the compound `Cn1cc(SCC(=O)NCc2ccco2)c2ccccc21`, the activity change, negative = cytotoxicity is -0.441% (inactive).

Regarding `CN(CCOc1ccccc1)C(=O)c1ccc(OCC(=O)Nc2cccc(C(F)(F)F)c2)cc1`, the activity change, negative = cytotoxicity is 0.912% (inactive).

For the compound `CC(Sc1c2c(nc3ccc(Cl)cc13)CCCC2)C(=O)NCc1ccco1` (stereo unspecified), the activity change, negative = cytotoxicity was -8.08% (inactive).

As to `COc1ccc(OCCNC(=O)c2ccccc2OCC(=O)Nc2ccc(NC(C)=O)cc2)cc1`, the activity change, negative = cytotoxicity is -14.7% (inactive).

With `NC(=O)C1CCN(C(=O)c2ccc(OCC(=O)Nc3cccc(C(F)(F)F)c3)cc2)CC1`, the activity change, negative = cytotoxicity is 8.43% (inactive).

With `O=C(COc1ccccc1C(=O)NCc1ccccc1)Nc1ccccc1`, the activity change, negative = cytotoxicity was -5.99% (inactive).

In the case of `CN(C)c1ccc(NC(=O)COc2ccccc2C(=O)N2CCOCC2)cc1`, the activity change, negative = cytotoxicity was -1.46% (inactive).

`CCOC(=O)C1CCN(C(=O)c2ccc(OCC(=O)N3CCOCC3)c(OC)c2)CC1`: the activity change, negative = cytotoxicity is -3.29% (inactive).

`Cn1c(=O)cc(SCC(=O)NCc2ccco2)c2ccccc21`: the activity change, negative = cytotoxicity was 5.32% (inactive).

The test system of another assay is A549 viability, CellTiter-Glo ATP luminescence, 72 h. The assay is described as above.
Conditions: not given
For `CCN1CCCC1CNC(=O)CSc1c2c(nc3ccc(Cl)cc13)CCCC2` (stereo unspecified), the AC50 was 16.2 µM.

For the compound `O=C(CSc1c2c(nc3ccc(Cl)cc13)CCCC2)NCc1cccs1`, the AC50 is > 52 µM (inactive).

As for `Cc1ccc(CNC(=O)CSc2c3c(nc4ccc(Cl)cc24)CCCC3)cc1`, the AC50 was > 52 µM (inactive).

Consider `O=C(CSc1c2c(nc3ccc(Cl)cc13)CCCC2)N1CCCCC1`, for which the AC50 is > 52 µM (inactive).

In the case of `Cc1cccc(CCNC(=O)CSc2c3c(nc4ccc(Cl)cc24)CCCC3)c1`, the AC50 was > 52 µM (inactive).

`O=C(CSc1c2c(nc3ccc(Cl)cc13)CCCC2)NC1CC1`: the AC50 was > 52 µM (inactive).

Consider `COc1ccc(NC(=O)CSc2c3c(nc4ccc(Cl)cc24)CCCC3)cc1`, for which the AC50 is > 52 µM (inactive).

As for `O=C(CSc1c2c(nc3ccc(Cl)cc13)CCCC2)NCCN1CCN(Cc2ccccc2)CC1`, the AC50 was 26.7 µM.

With `O=C(CSc1c2c(nc3ccc(Cl)cc13)CCCC2)N1CCC(N2CCCCC2)CC1`, the AC50 was 26.6 µM.

For the compound `COc1ccc(CNC(=O)CSc2c3c(nc4ccc(Cl)cc24)CCCC3)cc1`, the AC50 is > 52 µM (inactive).

Consider `O=C(CSc1c2c(nc3ccc(Cl)cc13)CCCC2)Nc1ccccc1`, for which the AC50 was > 52 µM (inactive).

As for `O=C(CSc1c2c(nc3cc(Cl)ccc13)CCCC2)N(Cc1ccco1)C1CCCC1`, the AC50 was > 52 µM (inactive).

On to `O=C(CSc1c2c(nc3ccc(Cl)cc13)CCCC2)NCCCc1ccccc1`, for which the AC50 was > 52 µM (inactive).

Take `O=C(CSc1c2c(nc3ccc(Cl)cc13)CCCC2)NCc1ccc2c(c1)OCO2`: the AC50 was > 52 µM (inactive).
